As a reminder, the IC50 is the concentration that gives 50% inhibition. Read a high IC50 as weaker potency in that assay.

Experimental findings from patent US12187684B2, “Benzimidazole derivatives as modulators of retinoid-related orphan receptor gamma (RORγ) and pharmaceutical use thereof” (Jiangsu Hengrui Medicine Co., Ltd., priority 2018, dated 2025) are described below.

For assay [1], the target named is T1, RORγ LBD-GST tagged (Homo sapiens, UniProt P51449).
T1 construct: RORγ LBD-GST tagged (Cat No. RORC-114H, Creative Biomart); purchased Creative Biomart RORC-114H
T1 sequence (P51449 269-508 limits assumed): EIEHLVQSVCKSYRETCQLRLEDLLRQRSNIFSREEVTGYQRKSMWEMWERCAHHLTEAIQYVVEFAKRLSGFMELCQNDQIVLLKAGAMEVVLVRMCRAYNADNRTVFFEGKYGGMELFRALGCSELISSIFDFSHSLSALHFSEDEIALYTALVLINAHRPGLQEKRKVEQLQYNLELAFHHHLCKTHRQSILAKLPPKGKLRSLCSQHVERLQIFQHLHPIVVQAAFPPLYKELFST
In words: LanthaScreen TR-FRET RORγ coactivator assay. Format: biochemical. The note with it: Fluorescein-D22 coactivator peptide, 1 hour room temperature. The gist of the method:
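GST-tagged RORγ LBD (25 ng/reaction) was incubated in coregulator buffer D with 5 mM DTT and compound (top 3 μM, 7-fold steps, 7 doses), then with a mix containing 0.6 μM fluorescein-D22 peptide and 8 nM Tb anti-GST antibody. After 1 h at room temperature in the dark, 520/495 nm TR-FRET was read. IC50 came from log concentration versus percent inhibition.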
For orientation: TR-FRET usually uses a lanthanide donor and a delayed reading to cut background.

Assay [2] has as its system IL-17 production, human PBMC cells. In words: IL-17 production assay using human PBMC. Format: cell-based. Conditions: human PBMC stimulated by cytostim for 3 days, IL-17 ELISA of supernatant. The gist of the method:
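Cryopreserved human PBMCs, 1×10^5 per well in TexMACS, were treated with compound or vehicle (<0.5% DMSO) and stimulated with Cytostim (10 μL/mL) for 3 days at 37 °C. Supernatant IL-17 was measured by ELISA. IC50 was taken from concentration versus percent inhibition.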
On the technique in general: ELISA stands for enzyme-linked immunosorbent assay.

For `NC(=O)CC(c1ccc(S(=O)(=O)CC2CC2)cc1)c1nc2cc(Cl)c(-c3ccccc3OC(F)F)cc2[nH]1` (centres unmarked) [Example 141, 3-(5-chloro-6-(2-(difluoromethoxy)phenyl)-1H-benzo[d]imidazol-2-yl)-3-(4-((cyclopropylmethyl)sulfonyl)phenyl)propanamide], the IC50 in assay [1] amounted to 0.01 µM; in assay [2] (Homo sapiens, PBMC, 72 h), 0.02 µM.
Turning to `CCS(=O)(=O)c1ccc(C(CO)c2nc3c(Cl)c(-c4ccccc4OC(F)(F)F)c(Cl)cc3[nH]2)c(F)c1` (centres unmarked) [Example 77, 2-(4,6-dichloro-5-(2-(trifluoromethoxy)phenyl)-1H-benzo[d]imidazol-2-yl)-2-(4-(ethylsulfonyl)-2-fluorophenyl)ethanol], the IC50 in assay [1] was 0.021 µM; in assay [2] (Homo sapiens, PBMC, 72 h) it was 0.017 µM.
As to `CC(=O)NCCC(c1ccc(S(=O)(=O)CC2CC2)cc1)c1nc2cc(-c3ccccc3OC(F)F)c(Cl)cc2[nH]1` (single isomer, unassigned) [166 or 167 made from Int-164A, (R or S)—N-(3-(6-chloro-5-(2-(difluoromethoxy)phenyl)-1H-benzo[d]imidazol-2-yl)-3-(4-((cyclopropylmethyl)sulfonyl)phenyl)propyl)acetamide], the IC50 in assay [1] was 0.01 µM; in assay [2] (Homo sapiens, PBMC, 72 h) it was 0.066 µM.
For `O=S(=O)(CC1CC1)c1ccc(Cc2nc3c(Cl)c(-c4ccccc4OC(F)(F)F)c(Cl)cc3[nH]2)cc1` [Example 66, 4,6-dichloro-2-(4-((cyclopropylmethyl)sulfonyl)benzyl)-5-(2-(trifluoromethoxy)phenyl)-1H-benzo[d]imidazole], in that order: 0.002 µM and 0.01 µM.
On to `CCS(=O)(=O)c1ccc(Cc2nc3c(Cl)c(-c4ccccc4OC(F)(F)F)c(Cl)cc3[nH]2)c(Cl)c1` [Example 86, 4,6-dichloro-2-(2-chloro-4-(ethylsulfonyl)benzyl)-5-(2-(trifluoromethoxy)phenyl)-1H-benzo[d]imidazole], for which the IC50 in assay [1] was 0.075 µM; in assay [2] (Homo sapiens, PBMC, 72 h) it was 0.023 µM.
`COc1ccccc1-c1c(Cl)cc2nc(C(CO)c3ccc(S(=O)(=O)CC4CC4)cc3)[nH]c2c1Cl` (centres unmarked) [Example 135, 2-(4-((cyclopropylmethyl)sulfonyl)phenyl)-2-(5,7-dichloro-6-(2-methoxyphenyl)-1H-benzo[d]imidazol-2-yl)ethanol]: the IC50 in assay [1] was 0.039 µM; in assay [2] (Homo sapiens, PBMC, 72 h) it was 0.014 µM.
As for `CCOc1ccccc1-c1c(Cl)cc2nc(C(O)c3ccc(S(=O)(=O)CC4CC4)cc3)[nH]c2c1Cl` (centres unmarked) [Example 138, (4-((cyclopropylmethyl)sulfonyl)phenyl)(5,7-dichloro-6-(2-ethoxyphenyl)-1H-benzo[d]imidazol-2-yl)methanol], the 50% inhibitory concentration (IC50) stood at 0.018 µM in assay [1] and 0.009 µM in assay [2] (Homo sapiens, PBMC, 72 h).
With `CC(C)Oc1ccccc1-c1cc2nc(C(CCO)c3ccc(S(=O)(=O)CC4CC4)cc3)[nH]c2cc1Cl` (single isomer, unassigned) [the longer retention time of 150 and 151, 3-(6-chloro-5-(2-isopropoxyphenyl)-1H-benzo[d]imidazol-2-yl)-3-(4-((cyclopropylmethyl)sulfonyl)phenyl)propan-1-ol], the results for the IC50 in assay [1] and in assay [2] were 0.026 µM and 0.031 µM, respectively.
As to `O=S(=O)(NC1CC1)c1ccc(C(CO)c2nc3c(Cl)c(-c4ccccc4OC(F)(F)F)c(Cl)cc3[nH]2)cc1` (centres unmarked) [Example 123, N-cyclopropyl-4-(1-(4,6-dichloro-5-(2-(trifluoromethoxy)phenyl)-1H-benzo[d]imidazol-2-yl)-2-hydroxyethyl)benzenesulfonamide], the IC50 in assay [1] was found to be 0.03 µM; in assay [2] (Homo sapiens, PBMC, 72 h), 0.058 µM.
As for `CCS(=O)(=O)c1ccc(C(O)c2nc3c(Cl)c(-c4ccccc4OC(F)F)c(Cl)cc3[nH]2)cc1` (centres unmarked) [Example 30, (4,6-dichloro-5-(2-(difluoromethoxy)phenyl)-1H-benzo[d]imidazol-2-yl)(4-(ethylsulfonyl)phenyl)methanol], the IC50 in assay [1] is 0.062 µM; in assay [2] (Homo sapiens, PBMC, 72 h), 0.007 µM.
